Values of other authors in patent publication US20230330185A1, “METHODS AND COMPOSITIONS FOR TRANSDUCING HEMATOPOIETIC STEM AND PROGENITOR CELLS IN VIVO” (Magenta Therapeutics, Inc., priority 2020, published 2023).

Tested on: hematopoietic stem and progenitor cells
Details: as described in U.S. Pat. No. 6,080,398 and 6,447,766; cited from earlier work

| Substance | potency to induce hematopoietic stem and progenitor cell mobilization, relative to parent peptide |
| --- | --- |
| Gro-β T N65D: variant of Gro-β T with aspartic acid in place of asparagine at position 65, SEQ ID NO: 4 | substantially greater than that of Gro-β T |
| Gro-β T: truncated Gro-β with deletion of the first four N-terminal amino acids, SEQ ID NO: 2; CXCR2 agonist | superior to that of Gro-β by multiple orders of magnitude |
